Measured values published in US12446495B2, “Injection systems, injection tools and methods for same” (Invaio Sciences International GmbH, priority 2018, dated 2025).

Assay: Distribution of test substance within plants after trunk injection
Format: in vivo
Settings: solution comprising 2% Brilliant Blue E 133 injected; trees felled and cut in pieces; over 24 hours
Text: The trunk injection devices have been tested regarding the use with different types of trunks, the speed of absorption, distribution of product within the plant, and the continuing usage of an injection device within a trunk. The injection devices have been tested with trunks with a diameter between 2 cm and 30 cm. The tests have been conducted with box, vine, hazelnut, walnut, maple, beach and oak. Further, trees such as date palm, citrus tree, and banana tree would be suitable as well.′ Speed of absorption is influenced by factors such as weather, season, time of day and injection pressure. Within tests conducted under ideal conditions, an injection pressure of 2.5 bars, and 10 ml of test substance, absorption times below 2 minutes have been achieved.
Distribution within plants has been tested injecting a solution comprising 2% Brilliant Blue E 133 (CAS reg. No. 3844-45-9.) as a test substance. Trees have afterwards been felled and cut in pieces to analyze the distribution of the test substance over time within the plant. The test substance did typically distribute over 5 meters within the stem over 24 hours.

distribution of the test substance within the stem: ~5 meters
Structure (SMILES): CCN(Cc1cccc(S(=O)(=O)[O-])c1)c1ccc(C(=C2C=CC(=[N+](CC)Cc3cccc(S(=O)(=O)[O-])c3)C=C2)c2ccccc2S(=O)(=O)[O-])cc1.[Na+].[Na+] [Brilliant Blue E 133]
